Values quoted from earlier work, collected in patent US10058559B2, “Treatment or prevention of an intestinal disease or disorder” (The United States of America, as represented by the …, priority 2014, dated 2018).

Experiments:
TNK1 = biological target: T1, TNK1 (Homo sapiens, UniProt Q13470); conditions: 185-kinase panel; cited from earlier work
T1 sequence (Q13470 1-666): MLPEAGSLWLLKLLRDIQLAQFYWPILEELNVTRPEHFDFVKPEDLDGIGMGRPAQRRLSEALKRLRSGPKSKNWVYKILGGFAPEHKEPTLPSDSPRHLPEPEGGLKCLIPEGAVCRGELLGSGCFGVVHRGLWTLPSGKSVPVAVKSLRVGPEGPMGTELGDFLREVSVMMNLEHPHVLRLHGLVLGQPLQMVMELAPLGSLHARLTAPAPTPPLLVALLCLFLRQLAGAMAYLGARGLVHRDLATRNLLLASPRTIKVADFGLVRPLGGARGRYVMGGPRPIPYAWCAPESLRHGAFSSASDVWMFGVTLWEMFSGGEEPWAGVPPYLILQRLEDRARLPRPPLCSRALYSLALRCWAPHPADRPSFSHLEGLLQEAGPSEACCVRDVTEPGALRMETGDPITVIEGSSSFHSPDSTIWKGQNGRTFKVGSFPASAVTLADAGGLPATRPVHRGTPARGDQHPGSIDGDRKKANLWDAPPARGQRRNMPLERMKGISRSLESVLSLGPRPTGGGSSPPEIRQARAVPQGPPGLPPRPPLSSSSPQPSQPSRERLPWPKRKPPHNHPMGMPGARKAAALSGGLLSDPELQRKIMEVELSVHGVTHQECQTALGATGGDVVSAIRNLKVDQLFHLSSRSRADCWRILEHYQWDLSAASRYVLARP

PIP4K2C = biological target: T2, PIP4K2C (Homo sapiens, UniProt Q8TBX8); conditions: 185-kinase panel; cited from earlier work
T2 sequence (Q8TBX8 1-421): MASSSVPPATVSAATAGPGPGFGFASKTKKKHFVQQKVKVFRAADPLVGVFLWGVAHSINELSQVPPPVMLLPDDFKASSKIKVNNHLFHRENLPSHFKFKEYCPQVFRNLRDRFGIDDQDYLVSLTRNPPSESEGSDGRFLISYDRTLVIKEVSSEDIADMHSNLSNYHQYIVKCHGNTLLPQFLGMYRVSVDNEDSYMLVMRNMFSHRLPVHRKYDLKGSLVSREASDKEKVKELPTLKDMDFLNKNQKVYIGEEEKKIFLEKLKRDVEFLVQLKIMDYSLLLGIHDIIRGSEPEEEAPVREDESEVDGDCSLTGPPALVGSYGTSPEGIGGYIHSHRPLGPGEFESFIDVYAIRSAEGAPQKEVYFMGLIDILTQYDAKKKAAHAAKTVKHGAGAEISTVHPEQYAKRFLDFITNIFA

CAMKK2 = CAMKK2 (Homo sapiens, UniProt Q96RR4); conditions: 185-kinase panel; cited from earlier work
[1] = in vivo; cited from earlier work
PLK4 = biological target: T3, PLK4 (Homo sapiens, UniProt O00444); conditions: 185-kinase panel; cited from earlier work
T3 sequence (O00444 1-970): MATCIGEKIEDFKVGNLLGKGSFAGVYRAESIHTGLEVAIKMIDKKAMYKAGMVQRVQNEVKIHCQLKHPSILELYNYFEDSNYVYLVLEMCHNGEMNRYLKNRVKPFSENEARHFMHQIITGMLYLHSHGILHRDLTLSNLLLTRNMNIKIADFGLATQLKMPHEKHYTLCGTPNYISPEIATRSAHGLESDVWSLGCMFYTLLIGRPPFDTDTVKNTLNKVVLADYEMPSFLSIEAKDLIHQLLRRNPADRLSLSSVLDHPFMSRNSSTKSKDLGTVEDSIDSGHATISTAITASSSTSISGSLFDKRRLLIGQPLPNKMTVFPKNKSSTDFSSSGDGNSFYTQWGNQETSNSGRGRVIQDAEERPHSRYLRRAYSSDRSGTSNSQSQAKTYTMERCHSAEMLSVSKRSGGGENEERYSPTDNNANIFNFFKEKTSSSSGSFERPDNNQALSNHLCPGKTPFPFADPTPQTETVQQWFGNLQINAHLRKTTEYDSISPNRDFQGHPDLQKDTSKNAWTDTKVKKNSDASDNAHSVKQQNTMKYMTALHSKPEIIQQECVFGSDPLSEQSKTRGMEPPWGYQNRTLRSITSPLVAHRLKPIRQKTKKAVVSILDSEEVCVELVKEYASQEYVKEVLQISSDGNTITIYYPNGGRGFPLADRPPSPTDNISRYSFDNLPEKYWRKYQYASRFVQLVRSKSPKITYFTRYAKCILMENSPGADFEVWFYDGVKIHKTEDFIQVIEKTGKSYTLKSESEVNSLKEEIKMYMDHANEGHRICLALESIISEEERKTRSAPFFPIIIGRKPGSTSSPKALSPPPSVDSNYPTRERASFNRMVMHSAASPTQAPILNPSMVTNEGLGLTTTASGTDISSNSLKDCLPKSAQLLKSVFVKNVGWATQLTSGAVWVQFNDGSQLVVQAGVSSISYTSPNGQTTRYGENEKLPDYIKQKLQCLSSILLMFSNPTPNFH

GAK = biological target: T4, GAK (Homo sapiens, UniProt O14976); conditions: 185-kinase panel; cited from earlier work
T4 sequence (O14976 1-1311): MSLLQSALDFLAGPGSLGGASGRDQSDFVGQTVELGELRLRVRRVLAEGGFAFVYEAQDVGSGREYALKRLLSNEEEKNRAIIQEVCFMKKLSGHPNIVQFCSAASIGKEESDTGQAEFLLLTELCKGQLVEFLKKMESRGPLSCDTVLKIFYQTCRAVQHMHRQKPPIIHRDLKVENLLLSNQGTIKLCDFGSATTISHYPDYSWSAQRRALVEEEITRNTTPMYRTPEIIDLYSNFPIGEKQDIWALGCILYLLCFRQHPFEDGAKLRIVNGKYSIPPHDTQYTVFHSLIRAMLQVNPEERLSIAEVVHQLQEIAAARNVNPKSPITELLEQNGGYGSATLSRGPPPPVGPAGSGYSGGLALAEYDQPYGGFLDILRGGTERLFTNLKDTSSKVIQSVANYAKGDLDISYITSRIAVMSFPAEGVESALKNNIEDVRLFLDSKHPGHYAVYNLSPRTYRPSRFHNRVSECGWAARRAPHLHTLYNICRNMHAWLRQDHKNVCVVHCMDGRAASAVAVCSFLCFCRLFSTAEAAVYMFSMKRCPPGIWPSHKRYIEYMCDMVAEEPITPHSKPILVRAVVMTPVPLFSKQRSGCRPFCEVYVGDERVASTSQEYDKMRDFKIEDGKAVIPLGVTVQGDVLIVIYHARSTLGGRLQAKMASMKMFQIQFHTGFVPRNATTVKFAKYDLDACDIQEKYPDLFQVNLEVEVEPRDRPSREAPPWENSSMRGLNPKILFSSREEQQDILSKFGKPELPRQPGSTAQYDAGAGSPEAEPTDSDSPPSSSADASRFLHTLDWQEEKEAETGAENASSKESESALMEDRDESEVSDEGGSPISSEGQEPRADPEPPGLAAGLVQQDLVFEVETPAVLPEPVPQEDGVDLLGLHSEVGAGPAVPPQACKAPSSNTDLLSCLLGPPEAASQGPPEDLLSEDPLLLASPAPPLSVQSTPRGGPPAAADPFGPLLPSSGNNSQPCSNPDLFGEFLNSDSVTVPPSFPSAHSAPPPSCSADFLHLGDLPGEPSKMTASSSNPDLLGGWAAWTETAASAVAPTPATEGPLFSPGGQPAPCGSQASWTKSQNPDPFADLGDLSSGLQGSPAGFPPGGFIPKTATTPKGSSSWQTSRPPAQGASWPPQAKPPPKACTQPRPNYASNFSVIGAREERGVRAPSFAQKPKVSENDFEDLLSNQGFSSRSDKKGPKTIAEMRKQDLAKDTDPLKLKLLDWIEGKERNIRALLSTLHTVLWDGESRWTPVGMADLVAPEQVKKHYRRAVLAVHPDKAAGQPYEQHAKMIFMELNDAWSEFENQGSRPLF

CAMKK2, sequence (Q96RR4 whole entry, species assumed): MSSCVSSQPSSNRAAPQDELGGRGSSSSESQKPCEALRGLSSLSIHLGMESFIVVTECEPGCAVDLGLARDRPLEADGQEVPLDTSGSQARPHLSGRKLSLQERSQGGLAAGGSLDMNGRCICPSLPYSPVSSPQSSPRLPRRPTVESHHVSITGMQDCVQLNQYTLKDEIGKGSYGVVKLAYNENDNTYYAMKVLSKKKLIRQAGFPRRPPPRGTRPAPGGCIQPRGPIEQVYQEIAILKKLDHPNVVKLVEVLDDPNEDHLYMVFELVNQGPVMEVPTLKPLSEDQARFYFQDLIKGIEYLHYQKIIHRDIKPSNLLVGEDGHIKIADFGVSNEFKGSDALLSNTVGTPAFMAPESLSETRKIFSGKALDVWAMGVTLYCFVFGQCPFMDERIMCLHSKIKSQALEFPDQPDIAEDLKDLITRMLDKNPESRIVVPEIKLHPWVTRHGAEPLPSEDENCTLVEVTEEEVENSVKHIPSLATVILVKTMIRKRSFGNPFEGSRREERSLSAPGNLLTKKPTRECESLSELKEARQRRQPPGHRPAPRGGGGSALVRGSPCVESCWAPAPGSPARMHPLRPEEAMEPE

SMILES: COc1cc(N2CCOCC2)ccc1Nc1ncc(F)c(Nc2ccccc2NS(C)(=O)=O)n1.Cl [CZC-25146, N-(2-(5-Fluoro-2-(2-methoxy-4-morpholinophenylamino)pyrimidin-4-ylamino)phenyl)methanesulfonamide, HCl]
- IC50 (TNK1): < 0.3 µM
- IC50 (PIP4K2C): < 0.3 µM
- IC50 (CAMKK2): < 0.3 µM
- oral bioavailability [1]: orally bioavailable
- IC50 (PLK4): < 0.3 µM
- IC50 (GAK): < 0.3 µM
